Assay [1] has as its target T1, S1PR3 (Mus musculus, UniProt Q9Z0U9).
T1 construct: attenuates S1P-evoked calcium responses in wild-type DRG sensory neurons; endogenous in cells; host or cells: cultured mouse dorsal root ganglion (DRG) neurons, wild-type
Briefly: Ratiometric calcium imaging in cultured DRG neurons. In kind it is cell-based, mice. Particulars: for calcium responses in cultured DRG neurons: S1P 100 nM, CYM 100 μM. As for the experimental part: FIG. 1A-1G. A. Graphical model illustrating the role of S1PR3-evoked itch in somatosensory neurons of the dorsal root ganglion (DRG). […] C. […] D. Venn diagram displaying overlap of S1P responsive neurons from ratiometric calcium imaging with known pruritogens and algogens in cultured DRG neurons. Pruritogens: HIS=histamine, CQ=chloroquine. Algogens: CAP=capsaicin, AITC=allyl-isothiocyanate. Data were collected from n>4,000 neurons. E. Scratching behavioral data for mice injected with 200 nM S1P or 0.1% methanol-PBS vehicle intradermally into the rostral back. WT=wild-type, A1 −/−=Trpa1-deficient knockout mice. Scratching behaviors were recorded 30 minutes post injection. […] G. S1pr3 transcript levels were quantified using qRT-PCR from skin of mice treated with vitamin D or ethanol control for 7 days to induce an atopic dermatitis-like condition. Data were normalized to Gapdh housekeeping gene. For all data, one way ANOVA was performed with a Tukey-Kramer post hoc statistical test. Tukey-Kramer values are reported and only p<0.05 were considered significant, ***=p<0.001. n.s.=not significant.

In assay [2] the test system is mice. Briefly: Scratching behavior after intradermal injection into the rostral back. In kind it is in vivo.
Assay [3] concerns KCNQ2/3 potassium channels (M channels). Briefly: Excitability of mechanical nociceptor DRG neurons in vitro. In kind it is cell-based. Particulars: via S1PR3, through closure of KCNQ2/3 potassium channels. From the text:
In situ RNA hybridization studies and protein localization studies indicate that S1pr3 is expressed in thermal nociceptors and mechanical nociceptors, as well as nociceptive free nerve endings in skin.

The test system of assay [4] is wild-type mice. Briefly: Mechanical pain sensitivity (von Frey, tactile stimuli) in healthy wild-type mice. In kind it is in vivo. From the text:
Likewise, in S1pr3^−/− mice, radiant heat withdrawal latencies were normal.
Pharmacological manipulation of S1PR3 or reduction of S1P levels lessens mechanical pain sensation in wild-type mice without affecting innocuous touch.
Blockade of S1PR1 with the selective antagonist W146 has no effect on mechanosensitivity. Tonic levels of S1P in the skin are responsible for S1PR3-mediated mechanical pain sensation.

The subject of assay [5] is wild-type mice. The assay is described as follows: Complete Freund's Adjuvant (CFA) model of chronic inflammation. It is filed as in vivo. The source says:
S1PR3 knockout mice treated with CFA fail to develop thermal hypersensitivity and display normal mechanical sensitivity due to their baseline defect in mechanical pain sensation. They also display lessened paw swelling, possibly due to decreased neurogenic inflammation. […] Loss of S1P production with acute SKI II injection into the CFA-treated paw also reverses CFA thermal hypersensitivity.

The mark [6] stands for this setting: S1PR3-deficient (S1PR3 −/−) mice.
[7] abbreviates: wildtype mice (WT), compared to physiological saline control.
Where [8] appears, read: wild-type mice, intradermal administration.
Setting [9] is: wild-type mice, delivered to the hindpaw after induction of CFA pain.

T1 sequence (Q9Z0U9 whole entry): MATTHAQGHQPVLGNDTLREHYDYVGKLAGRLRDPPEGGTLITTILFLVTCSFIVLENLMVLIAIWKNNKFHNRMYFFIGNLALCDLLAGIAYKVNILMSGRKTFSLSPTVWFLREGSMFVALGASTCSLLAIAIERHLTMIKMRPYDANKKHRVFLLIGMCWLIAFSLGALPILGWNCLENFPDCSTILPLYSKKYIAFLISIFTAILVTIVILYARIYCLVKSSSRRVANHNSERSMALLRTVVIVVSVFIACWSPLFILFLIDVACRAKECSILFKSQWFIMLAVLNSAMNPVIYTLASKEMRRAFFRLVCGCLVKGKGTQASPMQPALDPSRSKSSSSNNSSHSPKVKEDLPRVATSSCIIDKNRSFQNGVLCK

With `O=C(c1cc(C2CC2)on1)N(C1CCCCC1)C1CCCCC1` [CYM 5541], the “calcium responses in cultured DRG neurons” value in assay [1] (setting [6]) is on record as “lack calcium responses”; in assay [1] (setting [7]), “robust responses”.

`CCCCCCCCCCCCC/C=C/[C@@H](O)[C@@H](N)COP(=O)(O)O` [S1P, Sphingosine-1-phosphate]: the “calcium responses in cultured DRG neurons” value in assay [1] (setting [6]) is listed as “lack calcium responses”; in assay [1] (setting [7]), “robust responses”. Besides, the “scratching behavior vs. vehicle” value in assay [2] (S1PR3-deficient mice (S1PR3 −/−), 200 nM intradermally, 30 minutes post injection) was “no difference”. The scratching behavior entry in assay [2] (mice (FIG. 1E), S1PR3-dependent opening of TRPA1) is listed as “leads to scratching behavior in mice”. Moreover, the “excitability of mechanical nociceptor DRG neurons” value in assay [3] is on record as “increases the excitability”.

With `Oc1ccc(Nc2nc(-c3ccc(Cl)cc3)cs2)cc1` [SKI II, 2-(p-hydroxyanilino)-4-(p-chlorophenyl)thiazole], in assay [4] (injection of 50 μM), the “mechanical pain sensitivity after block of local production of S1P” value was “mechanical pain sensitivity was dependent on local S1P in the skin”. Further, the CFA thermal hypersensitivity result in assay [5] (acute injection into the CFA-treated paw) is “reverses”.

Turning to `CC(C)(C)C(=O)C(=Nc1ccc(Cl)cc1)NNc1ccc(Cl)cc1` [TY 52156, N-(4-Chlorophenyl)-3,3-dimethyl-2-oxobutanimidic 2-(4-chlorophenyl) hydrazide], in assay [1] (wild-type DRG sensory neurons), the “effect on S1P-evoked calcium responses” value is recorded as “attenuates” and the “effect on the effects of the allosteric agonist CYM (calcium imaging)” value is recorded as “does not block”. In assay [4] (setting [8]), the mechanosensitivity result is given as “promotes mechanical hyposensitivity” and the “responsiveness to noxious tactile stimuli” value is given as “decreases responsiveness”. For the same compound, in assay [5] (setting [9]), the mechanical thresholds entry is “to pre-CFA, baseline levels” and the thermal thresholds entry is listed as “to pre-CFA, baseline levels”.

Turning to `CCCCCCc1cccc(NC(=O)[C@H](N)CCP(=O)(O)O)c1` [W146], the mechanosensitivity entry in assay [4] (setting [8]) is “no effect”.

For the origin of these results see US20180110757A1, “METHODS OF TREATING PRURITIS AND PAIN” (The Regents of the University of California, priority 2016, published 2018).
